Values joined by “and” are separate entries in the source; they are usually repeats but may differ in a detail not shown here. Equal entries are not always repeated. “Also recorded” adds a separate entry of the source.
Experiments:
[1] = test system: irradiated intestinal epithelium (jejunum); assay: Jejunum histology and crypt proliferation after AIR; type: in vivo
[2] = test system: intestinal epithelial integrity; assay: FITC-dextran permeability assay; type: in vivo, mice
Description: Since dextran is unable to cross the GI epithelia unless it is compromised, dextran in the blood is a good indicator of epithelial damage. Blood FITC-dextran levels were measured at 4 h after gavage.
At day 5 post mice exposed to ABI and/or treated with BCN057 were gavaged with 0.6 mg g-1 body weight of a FITC-dextran solution ([…] size, Sigma). In all, four hrs. after gavage mice were killed and serum was obtained with cardiac puncture. Samples were measured in a 96-well plate using a Flexstation ii 384 multiwell fluorometer (Molecular Devices). A standard curve was constructed using mouse serum having increasing amounts of FITC-dextran to determine the serum levels of FITC-dextran in different treatment groups.

[3] = test system: nuclear β-catenin in crypt epithelial cells; assay: β-Catenin immunohistochemistry of mouse jejunum; type: in vivo, mice; details: BCN057 at 24 hrs post AIR vs irradiated untreated animals
Description: The effect of BCN057 was analyzed in crypt epithelial β-catenin activation. […] Nuclear β-catenin positive cells were primarily observed in crypt bottom which is also location for ISCs indicating activation of WNT-β-catenin signaling in ISCs.
β-Catenin immunohistochemistry was performed in paraffin-embedded sections of mouse jejunum (56). Before immunostaining antigen retrieval was performed by heating slides in […] at 100° C. for 20 min in a microwave oven at 500 W using antigen retrieval solution (10 mM Tris and 1 mM EDTA, pH 9.0). Non-specific antibody binding was blocked for 20 min. by incubation with 0.05% w/v BSA in PBS. Tissue was stained using the anti-β-catenin antibody (1:100 dilution; BD Transduction Laboratories, Franklin Lakes, N.J.; #610154) at room temperature for 2 hr followed by staining with horseradish peroxidase-conjugated Anti-Mouse Antibody (Dako, Denmark) at room temperature for 1 hr. Peroxidase activity was detected by adding DAB substrate. Nucleus was counter-stained with haematoxylin (blue). β-Catenin-positive nucleus (stained dark brown) was calculated from 15 crypts per field, 5 fields per mice.

[4] = test system: irradiated intestinal epithelium (jejunum); assay: Jejunum histology and crypt proliferation after AIR; type: in vivo; remark: listed apart in the source
Source text: Since radiation doses>8 Gy induces cell cycle arrest and apoptosis of the crypt epithelial cells within day 1 post-radiation, resulting in a decrease in regenerating crypt colonies by day 3.5 and ultimately villi denudation by day 7 post-radiation exposure, animals were sacrificed when moribund or at 3.5 days after AIR for time course experiments and intestines were collected for histology. The intestine of each animal was dissected, washed in PBS to remove intestinal contents and the jejunum was fixed in 10% neutral-buffered formalin before paraffin embedding. Tissue was routinely processed and cut into 5 μm sections for haematoxylin and eosin and immunohistochemical staining. All haemotoxylin and eosin (HE) (Fisher Scientific, Pittsburgh, Pa.) staining was performed at the Pathology Core Facility in the KUMC Cancer Center.
To visualize villous cell proliferation mid-jejunum was collected for paraffin embedding and Ki67 immunohistochemistry. Tissue sections were routinely deparaffinized and rehydrated through graded alcohols and incubated overnight at room temperature with a monoclonal anti Ki67 antibody. Nuclear staining was visualized using streptavidin-peroxidase and diaminobenzidine (DAB) and samples were lightly counterstained with haematoxylin. […] The proliferation rate was calculated as the percentage of KI67-positive cells over the total number of cells in each crypt. A total of 60 crypts were examined per animal.
Crypt depth was independently and objectively analyzed and quantitated in a blind manner from coded digital photographs of crypts from HE-stained slides using ImageJ 1.37 software to measure the height in pixels from the bottom of the crypt to the crypt villus junction. Villi length was determined by measuring the length from the crypt villus junction to villous tip. This measurement in pixels was converted to length (in μm) by dividing with the following a conversion factor (1.46 pixels μm-1).

[5] = test system: C57B16 mice exposed to AIR; assay: Survival after lethal abdominal irradiation (AIR), RIGS model; details: for survival: BCN057 s.c. 150 mg/kg from 24 hrs post AIR, single dose/day up to day 8, n=25/group, vehicle/untreated died within 15 days
Description: FIG. 1A. […] A 3 cm area of the mice containing the GI was irradiated (irradiation field), thus shielding the upper thorax, head and neck as well as lower and upper extremities, protecting a significant portion of the bone marrow, thus inducing predominantly RIGS. Mice exposed to AIR were treated with BCN057 (s.c.) (150 mg/kg of body weight) at 24 hrs post irradiation and continued up to day 8 (single dose/day).
To examine the radio-mitigating role of BCN057 against RIGS, C57B16 mice were exposed to graded doses of abdominal irradiation (AIR) (14-15Gy) after shielding the thorax, head and neck, and extremities, thus protecting the bone marrow.
Male C57B16/6J (Jackson laboratories) mice (five to six weeks old) were maintained ad libitum and all studies were performed under the guidelines and protocols of the Institutional Animal Care and Use Committee of the University of Kansas medical center.
AIR was performed on anaesthetized mice (with a continuous flow 1.5 ml min-1 of 1.5% isoflurane in pure oxygen) using the small animal radiation research platform (SARRP, XStrahl, Surrey, UK). A 2 cm area of the mice containing the GI was irradiated (FIG. 2), thus shielding the upper thorax, head and neck as well as lower and upper extremities, protecting a significant portion of the bone marrow, thus inducing predominantly RIGS. A radiation dose of 14-15 Gy was delivered to the midline of the GI, ensuring homogeneous delivery by performing half of the total irradiation from the anterior-posterior direction and the second half from the posterior-anterior direction. The total irradiation time to deliver the intended dose was calculated with respect to dose rate, radiation field size and fractional depth dose to ensure accurate radiation dosimetry.

[6] = test system: human malignant colonic organoids; assay: Human colon tumor derived organoids with or without irradiation; type: cell-based
Source text: FIG. 16. […] Organoids derived from surgical specimen of colon tumor were exposed to irradiation (8Gy) and then treated with BCN057. Note loss of budding crypt like structure in Irradiated organoids treated with BCN057.
FIG. 17. […] Budding crypt to total crypt ratio reduced in a dose dependent manner following irradiation (2-8 Gy).
BCN057 was first examined in the National Cancer Institute (NCI) 60 cancer cell line platform. Several of these cell lines are known to be positive for dysregulation of the Wnt/b-catenin signaling pathway. […] Next we examined the effect of BCN057 in human colonic tumor derived organoids exposed to irradiation.

[7] = jejunum, BCN057 at 24 hrs after AIR vs irradiated control

## COc1ccc2cc(-c3nc4ccc(C)cn4c3NCc3ccco3)c(=O)[nH]c2c1 [BCN057, 3-(3((furan-2-ylmethyl)ammo)-6-methylimidazo[1,2-a]pyridine-2-yl)-6-methoxyquinolin-2(1H)-one]
[1]; BCN057 treated vs untreated irradiated control, p<0.0005
  percent of BrdU+ve crypt epithelial cells: significantly higher
[1]; non-irradiated mice treated with BCN057
  crypt villus morphology and BRDU incorporation: did not induce any changes
[2]; irradiated (AIR) mice treated with BCN057 vs irradiated untreated control, 4 h after gavage
  serum FITC-dextran level: significantly reduced; also recorded: lower serum dextran level
[2]; unirradiated BCN057 treated mice vs irradiated control
  serum dextran level: lower serum dextran level
[3]
  nuclear β-catenin positive cells: significant increase; also recorded: more nuclear β-catenin staining
[4]; BCN057 at 24 hrs after AIR vs irradiated control
  number of crypt in jejunum: increase in number of crypts
[4]; jejunum, 3.5 day after AIR, BCN057 at 24 hrs post AIR
  crypt villus structure / epithelium (HE staining): normal crypt villus structure; also recorded: restitution of epithelium
[4]; [7]
  % of Ki67 positive crypt cells: increase in crypt cell proliferation
  Crypt Depth villi length: preserved villous length; also recorded: increase
[5]; 14-15 Gy AIR, BCN057 at 24 hrs post AIR
  duration of survival post AIR: > 30 days and > 60 days
[5]; 14Gy AIR
  survival: 80%
[5]; 15Gy AIR
  survival: 60%
[5]; after AIR/PBI, observed up to day 30-60 post exposure
  symptoms / clinical conditions in surviving treated mice: without showing any symptoms of RIGS; also recorded: did not develop any clinical conditions; also recorded: without any symptom of gastroenteritis or any other health complications
[5]; normal (un-irradiated) mice
  toxicity to normal mice: do not confer any toxicity
[6]; 8Gy (2-8 Gy in FIG. 17), BCN057 10 uM at 1 hr post radiation
  rescue of malignant organoids from radiation toxicity: did not recue organoids from radiation toxicity; also recorded: did not rescue; also recorded: could not reduce the radiation toxicity
[6]; un-irradiated organoids treated with BCN057
  growth and proliferation of malignant organoid: inhibitory effect
